# Results published in the supplement of paper PMC10307832.
# Columns and labels:
# Assay in all cases: relative viability (nuclei count vs DMSO), 5 days (fraction); higher = more cells survive
# NCI-H1792 = system: NCI-H1792
# Procedure, shortened: (§1)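 Relative viability equals treated-well nuclei counts divided by vehicle-well nuclei counts. Counts came from 4× images of lung cancer cell lines grown in 1536-well plates for 5 days after pin-tool dosing on the day after seeding. Dosing used one drug alone or a fixed anchor-drug dose plus five library-drug doses (not always all listed) in √10 steps, and values are medians of duplicate plates.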
# LC-2-ad = system: LC-2-ad
# Procedure, shortened: as §1
# SK-LU-1 = system: SK-LU-1
# Procedure, shortened: as §1
# LXF-289 = system: LXF-289
# Procedure, shortened: as §1
# NCI-H1944 = system: NCI-H1944
# Procedure, shortened: as §1
# NCI-H2085 = system: NCI-H2085
# Procedure, shortened: as §1
# HCC-78 = system: HCC-78
# Procedure, shortened: as §1
# LU99A = system: LU99A
# Procedure, shortened: as §1
# NCI-H1755 = system: NCI-H1755
# Procedure, shortened: as §1
# COR-L 105 = system: COR-L 105
# Procedure, shortened: as §1
# NCI-H460 = system: NCI-H460
# Procedure, shortened: as §1
# HCC-366 = system: HCC-366
# Procedure, shortened: as §1
# EPLC-272H = system: EPLC-272H
# Procedure, shortened: as §1
# A-427 = system: A-427
# Procedure, shortened: as §1
# NCI-H1975 = system: NCI-H1975
# Procedure, shortened: as §1
# HOP-62 = system: HOP-62
# Procedure, shortened: as §1
# LCLC-97TM1 = system: LCLC-97TM1
# Procedure, shortened: as §1
# NCI-H2170 = system: NCI-H2170
# Procedure, shortened: as §1
# UMC-11 = system: UMC-11
# Procedure, shortened: as §1
# NCI-H1915 = system: NCI-H1915
# Procedure, shortened: as §1
# NCI-H358 = system: NCI-H358
# Procedure, shortened: as §1
smiles,measurement,setting,value
Clc1ccc(Nc2nnc(Cc3ccncc3)c3ccccc23)cc1 [Vatalanib] + C[C@@H](Oc1cc(-c2cnn(C3CCNCC3)c2)cnc1N)c1c(Cl)ccc(F)c1Cl [Crizotinib] (partner 1 µM),relative viability,NCI-H1792; first compound 0.04 µM,0.945
same,relative viability,NCI-H1792; first compound 0.1265 µM,0.972
same,relative viability,NCI-H1792; first compound 0.4 µM,0.921
same,relative viability,NCI-H1792; first compound 1.265 µM,0.912
same,relative viability,NCI-H1792; first compound 4 µM,0.98
same,relative viability,LC-2-ad; first compound 0.04 µM,0.515
same,relative viability,LC-2-ad; first compound 0.1265 µM,0.436
same,relative viability,LC-2-ad; first compound 1.265 µM,0.456
same,relative viability,LC-2-ad; first compound 4 µM,0.458
same,relative viability,SK-LU-1; first compound 0.04 µM,0.923
same,relative viability,SK-LU-1; first compound 0.1265 µM,0.898
same,relative viability,SK-LU-1; first compound 0.4 µM,1.02
same,relative viability,SK-LU-1; first compound 1.265 µM,1.06
same,relative viability,SK-LU-1; first compound 4 µM,0.696
same,relative viability,LXF-289; first compound 0.04 µM,0.665
same,relative viability,LXF-289; first compound 0.1265 µM,0.743
same,relative viability,LXF-289; first compound 0.4 µM,0.807
same,relative viability,LXF-289; first compound 1.265 µM,0.717
same,relative viability,LXF-289; first compound 4 µM,0.78
same,relative viability,NCI-H1944; first compound 0.04 µM,1.13
same,relative viability,NCI-H1944; first compound 0.1265 µM,0.986
same,relative viability,NCI-H1944; first compound 0.4 µM,1.23
same,relative viability,NCI-H1944; first compound 1.265 µM,1.1
same,relative viability,NCI-H1944; first compound 4 µM,1.05
same,relative viability,NCI-H2085; first compound 0.04 µM,0.754
same,relative viability,NCI-H2085; first compound 0.1265 µM,0.779
same,relative viability,NCI-H2085; first compound 0.4 µM,1.04
same,relative viability,NCI-H2085; first compound 1.265 µM,0.787
same,relative viability,NCI-H2085; first compound 4 µM,0.888
same,relative viability,HCC-78; first compound 0.04 µM,0.318
same,relative viability,HCC-78; first compound 0.1265 µM,0.324
same,relative viability,HCC-78; first compound 0.4 µM,0.35
same,relative viability,HCC-78; first compound 4 µM,0.306
same,relative viability,LU99A; first compound 0.04 µM,0.597
same,relative viability,LU99A; first compound 0.1265 µM,0.524
same,relative viability,LU99A; first compound 0.4 µM,0.63
same,relative viability,LU99A; first compound 1.265 µM,0.528
same,relative viability,LU99A; first compound 4 µM,0.513
same,relative viability,NCI-H1755; first compound 0.04 µM,0.886
same,relative viability,NCI-H1755; first compound 0.1265 µM,0.821
same,relative viability,NCI-H1755; first compound 0.4 µM,0.942
same,relative viability,NCI-H1755; first compound 1.265 µM,0.802
same,relative viability,NCI-H1755; first compound 4 µM,0.773
same,relative viability,COR-L 105; first compound 0.04 µM,0.818
same,relative viability,COR-L 105; first compound 0.1265 µM,0.677
same,relative viability,COR-L 105; first compound 0.4 µM,0.938
same,relative viability,COR-L 105; first compound 1.265 µM,0.73
same,relative viability,COR-L 105; first compound 4 µM,0.827
same,relative viability,NCI-H460; first compound 0.04 µM,0.878
same,relative viability,NCI-H460; first compound 0.1265 µM,0.827
same,relative viability,NCI-H460; first compound 0.4 µM,1.21
same,relative viability,NCI-H460; first compound 1.265 µM,0.748
same,relative viability,NCI-H460; first compound 4 µM,0.856
same,relative viability,HCC-366; first compound 0.04 µM,0.545
same,relative viability,HCC-366; first compound 0.1265 µM,0.383
same,relative viability,HCC-366; first compound 0.4 µM,0.592
same,relative viability,HCC-366; first compound 1.265 µM,0.487
same,relative viability,HCC-366; first compound 4 µM,0.35
same,relative viability,EPLC-272H; first compound 0.04 µM,0.836
same,relative viability,EPLC-272H; first compound 0.1265 µM,0.779
same,relative viability,EPLC-272H; first compound 0.4 µM,0.965
same,relative viability,EPLC-272H; first compound 1.265 µM,0.919
same,relative viability,EPLC-272H; first compound 4 µM,0.955
same,relative viability,A-427; first compound 0.04 µM,1.03
same,relative viability,A-427; first compound 0.1265 µM,0.891
same,relative viability,A-427; first compound 0.4 µM,0.994
same,relative viability,A-427; first compound 1.265 µM,0.879
same,relative viability,A-427; first compound 4 µM,0.948
same,relative viability,NCI-H1975; first compound 0.04 µM,0.946
same,relative viability,NCI-H1975; first compound 0.1265 µM,0.856
same,relative viability,NCI-H1975; first compound 0.4 µM,0.959
same,relative viability,NCI-H1975; first compound 1.265 µM,0.845
same,relative viability,NCI-H1975; first compound 4 µM,0.821
same,relative viability,HOP-62; first compound 0.04 µM,0.921
same,relative viability,HOP-62; first compound 0.4 µM,0.948
same,relative viability,HOP-62; first compound 1.265 µM,0.911
same,relative viability,HOP-62; first compound 4 µM,0.904
same,relative viability,LCLC-97TM1; first compound 0.04 µM,0.308
same,relative viability,LCLC-97TM1; first compound 0.1265 µM,0.312
same,relative viability,LCLC-97TM1; first compound 0.4 µM,0.447
same,relative viability,LCLC-97TM1; first compound 1.265 µM,0.386
same,relative viability,LCLC-97TM1; first compound 4 µM,0.365
same,relative viability,NCI-H2170; first compound 0.04 µM,1.22
same,relative viability,NCI-H2170; first compound 0.1265 µM,1.21
same,relative viability,NCI-H2170; first compound 0.4 µM,1.18
same,relative viability,NCI-H2170; first compound 1.265 µM,1.06
same,relative viability,NCI-H2170; first compound 4 µM,1.04
same,relative viability,UMC-11; first compound 0.04 µM,0.616
same,relative viability,UMC-11; first compound 0.1265 µM,0.585
same,relative viability,UMC-11; first compound 0.4 µM,0.719
same,relative viability,UMC-11; first compound 1.265 µM,0.586
same,relative viability,UMC-11; first compound 4 µM,0.629
same,relative viability,NCI-H1915; first compound 0.04 µM,0.939
same,relative viability,NCI-H1915; first compound 0.1265 µM,0.869
same,relative viability,NCI-H1915; first compound 0.4 µM,0.885
same,relative viability,NCI-H1915; first compound 1.265 µM,0.92
same,relative viability,NCI-H1915; first compound 4 µM,0.918
same,relative viability,NCI-H358; first compound 0.04 µM,0.641
same,relative viability,NCI-H358; first compound 0.1265 µM,0.522
same,relative viability,NCI-H358; first compound 0.4 µM,0.8
same,relative viability,NCI-H358; first compound 1.265 µM,0.585
same,relative viability,NCI-H358; first compound 4 µM,0.602
